Assays:
[1] = Drug interaction of sibutramine, clopidogrel, or chlorzoxazone with sauchinone in mice (plasma pharmacokinetics); settings: for CL/F / Tmax / half-life / AUC: male, ICR, mouse, in vivo; for AUC: plasma, 1 mg/kg sibutramine, 10 mg/kg clopidogrel or 10 mg/kg chlorzoxazone
Protocol: For analysis of sibutramine, a mobile phase was made, consisting of 10 mM ammonium acetate adjusted to pH 4 with acetic acid: acetonitrile (94:6, v/v) and was eluted at 0.2 mL/min. […] Other parameters of mass spectrometers were the same as those used for analysis of metabolites of CYP substrates.
Male ICR mice (5 weeks old, weight of 20–25 g) were purchased from the Charles River Company Korea (Orient, Seoul, Korea). […] They were provided free access to food and water. These mice were allowed to acclimate to these conditions for three days prior to inclusion in the experiments.
Surgical procedures for mice were conducted under tiletamine HCl and zolazepam HCl anesthesia by intramuscular injection. The carotid artery (for blood sampling) cannulation was carried out using catheters (BASi, West Lafayette, IN, USA). Drug administration and blood sampling were performed at 5 h after surgery [55]. […] Other procedures were the same as those used for the sibutramine pharmacokinetic study.
AUC was calculated using the trapezoidal rule method. Standard methods [56] were used to calculate pharmacokinetic parameters using non-compartmental analysis (WinNonlin 2.1; Pharmasight Corp., Mountain View, CA, USA). Cmax and Tmax were read reversibly from extrapolated data.

CYP2C19 = target: T1, CYP2C19 (Homo sapiens, UniProt P33261); test: Reversible inhibition (RI) of CYP2C19 activity in HLMs (cocktail probe assay); assay type: in vitro ADME; settings: S-mephenytoin hydroxylation, 100 μM S-mephenytoin, 30 min incubation
T1 construct: pooled human liver microsomes from a mixed pool of 50 donors; tissue BD Gentest Co. 452156; host or cells: human liver microsomes, pool of 50 donors

[2] = mice, drug with sauchinone versus drug alone, decrease
[3] = mice, drug with sauchinone versus drug alone, increase

T1 sequence (P33261 whole entry): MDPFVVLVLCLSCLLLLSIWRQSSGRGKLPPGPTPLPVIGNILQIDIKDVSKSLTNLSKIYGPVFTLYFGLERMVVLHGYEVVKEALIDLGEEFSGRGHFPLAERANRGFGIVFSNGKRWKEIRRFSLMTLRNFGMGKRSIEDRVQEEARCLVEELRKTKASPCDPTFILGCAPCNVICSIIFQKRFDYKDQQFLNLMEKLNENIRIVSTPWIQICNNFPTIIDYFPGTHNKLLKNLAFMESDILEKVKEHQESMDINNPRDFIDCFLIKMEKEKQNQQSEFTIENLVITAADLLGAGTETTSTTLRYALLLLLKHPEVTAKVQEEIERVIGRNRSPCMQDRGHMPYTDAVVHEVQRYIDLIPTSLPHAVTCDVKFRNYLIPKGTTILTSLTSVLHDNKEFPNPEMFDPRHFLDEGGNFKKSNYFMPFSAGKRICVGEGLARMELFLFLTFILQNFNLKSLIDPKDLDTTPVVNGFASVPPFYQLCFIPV

CC(C)CC(N(C)C)C1(c2ccc(Cl)cc2)CCC1 (stereo not shown) [Sibutramine, sibutramine]
CL/F [1]: 0.253 ± 0.0208 mL/min/kg | Tmax [1]: 15 min | half-life [1]: 197 ± 35.9 min | CL/F ([1]; po): 0.205 ± 0.0186 mL/min/kg | Tmax ([1]; po): 15 min | half-life ([1]; po): 165 ± 31.8 min | AUC ([1]; po, mice, with sauchinone (100 mg/kg oral, 30 min before)): 82000 ng·h/mL | AUC ([1]; po, mice, without sauchinone (vehicle), oral administration per Table 3): 66300 ng·h/mL | CL/F slower with sauchinone than drug alone (by %) [1, 2]: 19.0% | t1/2 smaller with sauchinone than drug alone (by %) [1, 2]: 16.2% | AUC greater with sauchinone than drug alone (by %) [1, 3]: 23.6% | Cmax higher with sauchinone than drug alone (by %) [1, 3]: 41.5%

COc1ccc2[nH]c([S+]([O-])Cc3ncc(C)c(OC)c3C)nc2c1 (stereo not shown) [omeprazole, reference compound]
IC50 (CYP2C19): 6.59 µM
